Like-named read-outs stand apart in the source and are kept apart here.
Columns and labels:
[1] = tested on: ABCB1 at the BBB; conditions: cited from earlier work
[2] = tested on: ABCB1; conditions: cited from earlier work
[3] = tested on: ABCB1; conditions: cited from earlier work; remark: listed apart in the source
[4] = tested on: ABCB1; design: method as in PMID 26940368; conditions: read-out: IC50 for in vitro inhibition of its own transport by ABCB1; cited from earlier work
[5] = tested on: ABCG2; design: method as in PMID 26940368; conditions: read-out: IC50 for in vitro inhibition of its own transport by ABCG2; cited from earlier work
[6] = molecular target: T1, ABCG2 at the mouse BBB (Mus musculus, UniProt Q7TMS5); design: Two PET imaging approaches for assessing the activity of ABCG2 at the mouse BBB were performed; from tissue; host or cells: blood-brain barrier (brain capillary endothelium) of living female APP/PS1-21 and wild-type C57BL/6J mice; method as in PMID 22828996; conditions: Abcb1a/b(-/-) mice pretreated with 15 mg/kg Ko143; cited from earlier work
T1 sequence (Q7TMS5 1-657): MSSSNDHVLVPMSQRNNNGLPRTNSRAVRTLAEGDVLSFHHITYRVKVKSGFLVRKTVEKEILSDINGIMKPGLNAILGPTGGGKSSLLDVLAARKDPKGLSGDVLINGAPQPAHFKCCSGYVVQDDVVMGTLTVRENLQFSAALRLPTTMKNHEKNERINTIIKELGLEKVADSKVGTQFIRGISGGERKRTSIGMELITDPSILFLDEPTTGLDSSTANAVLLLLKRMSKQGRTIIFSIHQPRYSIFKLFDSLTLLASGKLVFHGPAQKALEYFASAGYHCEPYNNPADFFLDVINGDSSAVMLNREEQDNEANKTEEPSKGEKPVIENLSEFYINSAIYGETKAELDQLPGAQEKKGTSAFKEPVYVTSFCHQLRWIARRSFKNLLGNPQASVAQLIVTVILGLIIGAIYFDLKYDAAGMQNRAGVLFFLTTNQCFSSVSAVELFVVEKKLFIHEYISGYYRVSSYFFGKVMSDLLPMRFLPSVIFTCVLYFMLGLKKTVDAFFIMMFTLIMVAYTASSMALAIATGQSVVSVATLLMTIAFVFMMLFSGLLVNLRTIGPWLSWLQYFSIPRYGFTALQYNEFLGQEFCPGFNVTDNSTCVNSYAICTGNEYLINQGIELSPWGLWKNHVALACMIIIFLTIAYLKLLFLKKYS

[7] = molecular target: T1, ABCG2 at the mouse BBB; conditions: for percentage increase in Kp,brain following ABCG2 inhibition: Ko143 5 mg/kg vs vehicle, tariquidar 12 mg/kg, hippocampus, cortex; for change in Kp,brain after partial ABCG2 inhibition: Ko143 5 mg/kg

SMILES: CNC(=O)C(CCN1CCC(O)(c2ccc(Cl)cc2)CC1)(c1ccccc1)c1ccccc1 [[^11C]N-desmethyl-loperamide]
- increase in brain distribution relative to wild-type mice ([1]; heterozygous Abcb1a/b(+/-) knockout mice): 1.1 fold
- increase in brain distribution relative to wild-type mice ([1]; homozygous Abcb1a/b(-/-) knockout mice): 2.8 fold

SMILES: CN(C)C(=O)C(CCN1CCC(O)(c2ccc(Cl)cc2)CC1)(c1ccccc1)c1ccccc1 [loperamide]
- change in brain distribution in triple transgenic AD mice (APPswe, PS-1M146V, tauP301L) [2]: no changes

SMILES: Cc1nc2n(c(=O)c1CCN1CCC(c3noc4cc(F)ccc34)CC1)CCCC2O (stereo not drawn) [paliperidone]
- difference in Kp,uu,brain between tg-APPArcSwe and age-matched control mice [3]: no differences

SMILES: COc1cc2c(cc1OC)CN(CCc1ccc(NC(=O)c3cc(OC)c(OC)cc3NC(=O)c3cnc4ccccc4c3)cc1)CC2 [tariquidar]
- IC50 [4]: 17.1 nM
- IC50 [5]: 310 nM

SMILES: COc1cc2c(cc1OC)CN(CCc1ccc(NC(=O)c3cc(OC)c(OC)cc3NC(=O)c3cnc4ccccc4c3)cc1)CC2 [[^11C]tariquidar]
- maximum brain uptake, Kp,brain [6]: approximately 15
- percentage increase in Kp,brain following ABCG2 inhibition ([7]; APP/PS1-21 mice, cerebellum): 36–52%
- change in Kp,brain after partial ABCG2 inhibition ([7]; cerebellum, APP/PS1-21 mice): significantly increased
- change in Kp,brain after partial ABCG2 inhibition ([7]; cerebellum, wild-type mice): not in wild-type mice
- change in Kp,brain after partial ABCG2 inhibition ([7]; hippocampus and cortex, both mouse strains): significantly higher
- percentage increase in Kp,brain following ABCG2 inhibition ([7]; wild-type mice, cerebellum): 26–41%

Source: PMC7663372, “Brain Distribution of Dual ABCB1/ABCG2 Substrates Is Unaltered in a Beta-Amyloidosis Mouse Model” (International Journal of Molecular Sciences, 2020)
